Reference: patent US20230257468A1, “CIS-Binding Siglec Agonists and Related Compositions And Methods” (The Board of Trustees of the Leland Stanford Junior …, priority 2020, published 2023)

What was measured:
Assay type in all cases: cell-based, human
[1] = test system: neutrophils; test: Oxidative burst (ROS) in neutrophils
[2] = test system: PADI4 substrate H3; test: Western blot of H3 citrullination in neutrophils
[3] = test system: dHL-60 cells; test: NETosis in neutrophil-like dHL-60 cells
Method: (a-c) Primary neutrophils were cotreated with R848 (10 μM) and glycopolypeptide (500 nM) in IMDM supplemented 0.5% hiFBS containing the membrane impermeable DNA intercalators Cytotox Green or Red (250 nM). Images were acquired by fluorescence microscopy every 15 min for 12 h. The area of all green fluorescent objects >300 μm^2 was quantified and the total area was averaged across three images per well. Relative NETosis was determined by normalizing to the maximal NET area from R848 treatment alone (t=8 h). (a) Representative phase contrast and fluorescence images from t=8 h. Scale bars indicate 40 μm. (b) Quantitation of NETosis over time as area under the curve in (c). Error bars represent SD. (c) NET formation and degradation as a function of time. Error bands represent SEM. (d) Treatment of R848-stimulated neutrophils with various glycopolypeptides. Error bars represent SD. (e) pS9L is a mucin-like glycopolypeptide that bears high affinity and specific ligands for Siglec-9 and is functionalized with a membrane-tethering lipid tail. (f) HL-60 cells were transfected with siRNAs against SIGLEC9 (encoding Siglec-9), PTPN6 (encoding SHP-1), or a scrambled control and then grown for two days. Cells were then cotreated with R848 (10 μM) and vehicle or pS9L (500 nM). […] Statistics were determined by two-way ANOVA (b) or one-way ANOVA (c,d,f). * p<0.05; ** p<0.01; *** p<0.001; **** p<0.0001. […]

[4] = test system: primary neutrophils; test: Live-cell imaging NETosis assay, primary neutrophils; details: healthy neutrophils in vitro
Method: (a-c) Primary neutrophils were cotreated with R848 (10 μM) and glycopolypeptide (500 nM) in IMDM supplemented 0.5% hiFBS containing the membrane impermeable DNA intercalators Cytotox Green or Red (250 nM). Images were acquired by fluorescence microscopy every 15 min for 12 h. The area of all green fluorescent objects >300 μm^2 was quantified and the total area was averaged across three images per well. Relative NETosis was determined by normalizing to the maximal NET area from R848 treatment alone (t=8 h). (a) Representative phase contrast and fluorescence images from t=8 h. Scale bars indicate 40 μm. (b) Quantitation of NETosis over time as area under the curve in (c). Error bars represent SD. (c) NET formation and degradation as a function of time. Error bands represent SEM. (d) Treatment of R848-stimulated neutrophils with various glycopolypeptides. Error bars represent SD. […] Statistics were determined by two-way ANOVA (b) or one-way ANOVA (c,d,f). * p<0.05; ** p<0.01; *** p<0.001; **** p<0.0001.
TLR agonists were assayed using the live-cell imaging techniques in which freshly isolated neutrophils are cultured in low-serum media in the presence of a fluorogenic and membrane impermeable DNA-intercalating dye (Cytotox Green). Upon genomic DNA-externalization by NETosis, dye intercalates and fluorescence increases. […]

Compound | inhibition of pS9L-induced oxidative burst [1] | citrullination of H3 [2] | induction of NETosis [3] | induction of NETosis [4]
O=S(=O)(O)c1ccc2cc(N=Nc3cc(S(=O)(=O)O)c4cccnc4c3O)ccc2c1 [NSC-87877] | the oxidative burst was inhibited |  |  | 
CCCCCCCCCCCCCC(=O)O[C@@H]1[C@@H](C)[C@@]2(O)[C@@H](C=C(CO)C[C@]3(O)C(=O)C(C)=C[C@@H]23)[C@@H]2C(C)(C)[C@]12OC(C)=O [PMA, phorbol-12-myristate-13-acetate] |  | only yields moderate citrullination |  | 
CCOCc1nc2c(N)nc3ccccc3c2n1CC(C)(C)O [R848] |  | rapidly induced citrullination at R2, R8, and R17 | induced NETosis | sufficient to induce NETosis
